Results taken from patent US20040116656A1, “Memory-enhancing peptides and the use thereof” (priority 2000, published 2004).

System: learning and memory process of mouse (memory and learning impediment induced by scopolamine)
Experiment: Step-down platform electrical-shock avoidance test of learning and memory (RT, EN) in scopolamine-treated mice
Assay type: in vivo
Conditions: for Memory Results EN / Learning Results EN / Memory Results RT / Learning Results RT: scopolamine 1 mg/kg; for Memory Results EN / Memory Results RT: memory test 24 hrs later; for Learning Results EN / Learning Results RT: training trial
Description: The pharmacological tests of memory-enhancing peptide in this invention have been performed as following: the animals have been divided into three groups: drug administration group, control group and model group, with each group administrated with memory-enhancing peptide, saline and scopolamine respectively. In the test, the groups except control group were injected with scopolamine after the administration of medicine about 50 min., 10 min. later, the training began. First, the animals will be put into reaction box for 3 min. before each trails to familiarize them with the environment. Then, the reaction box are charged with 36V alternating current. When the animal subjects to electrical shock, it will jump up to the central platform to avoid harmful stimulation as a normal response. Most of animals may be return to the copper curdles twice or even more times, but they will jump back to the platform swiftly as the results of electrical shock. Each test trail will be performed for 5 min. and two following indices will be used to represent the learning results: (I) the number of total error (EN) during the whole training period; (2) the reaction time (RT) for the first returning to the copper curdle in the trail. The trails will repeat again 24 hrs later as memory test.

Molecule | Memory Results EN (Huperzine A 100 μg/kg) | Learning Results EN (Huperzine A 100 μg/kg, number of total errors) | Effect on memory and learning impediment induced by scopolamine, compared with model group (0.5 μg and 1 μg/kg, longer incubation period and lesser error numbers, P<0.01 vs model group) | Effect on scopolamine-induced memory and learning impediment compared with Huperzine A (0.5 μg/kg and 1 μg/kg versus Huperzine A 100 μg/kg) | Memory Results EN (drug dosage 0.25 μg/kg) | Memory Results RT (drug dosage 0.25 μg/kg) [s] | Learning Results EN (drug dosage 0.25 μg/kg) | Learning Results RT (drug dosage 0.25 μg/kg) [s] | Memory Results EN (drug dosage 0.5 μg/kg) | Memory Results RT (drug dosage 0.5 μg/kg) [s] | Learning Results EN (drug dosage 0.5 μg/kg) | Learning Results RT (drug dosage 0.5 μg/kg) [s] | Memory Results EN (drug dosage 1 μg/kg) | Memory Results RT (drug dosage 1 μg/kg) [s] | Learning Results EN (drug dosage 1 μg/kg) | Learning Results RT (drug dosage 1 μg/kg) [s] | Overall effect on memory and learning impediment induced by scopolamine (results of Table 1) (summary statement, no dose given)
C/C=C1\[C@H]2C=C(C)C[C@]1(N)c1ccc(=O)[nH]c1C2 [Huperzine A, reference compound] | 0.9 | 1.3 | – | – | – | – | – | – | – | – | – | – | – | – | – | – | –
PyroGlu—Asn—Cys(S—Bu^t)—Pro—Arg [MEP-531] | – | – | obviously improve the memory and learning impediment induced by scopolamine | better effects than Huperzine A | 0.9 | 197.6 | 0.3 | 78.8 | 0.5 | 245.5 | 0.2 | 241.6 | 0.3 | 282.8 | 0.3 | 267.6 | remarkably ameliorate the memory and learning impediment induced by scopolamine
